Read-outs that look alike come from different tables or passages of the source.
Assays:
[1] = system: NCI-H146 human small cell lung carcinoma cells; assay: Cellular efficacy in human tumor cell line (MTS viability assay); type: cell-based; conditions: NCI-H146, 10% human serum, 48 hours
In short: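 Cells plated at 50,000/well in medium with 10% human serum in place of FBS. Treated with 2-fold serial dilutions from 10 μM to 0.020 μM, in duplicate, at least 3 separate runs. Viable cells measured by MTS after 48 h of compound exposure.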

Bcl-2 protein = molecular target: T1, Bcl-2 protein (Homo sapiens, UniProt P10415, DELINS35-91DVEENRTEAPEGTESE, form not given); assay: Bcl-2 binding affinity, fluorescence polarization with fluorescein-labeled BAX peptide; conditions: Wang's equation, read-out: Target Binding Affinity Ki (Bcl-2)
T1 construct: fused on or other part: A short piece of the Bcl-xL (Q07817) loop replaces Bcl-2 loop residues 35-91; The C-terminal membrane anchor is absent

[2] = Pharmacokinetic evaluation in rat; type: in vivo; conditions: male, Sprague-Dawley, plasma; for AUC(0-inf): single 5 mg/kg oral dose, Table 1, read-out: Pharmacokinetic area under the plasma concentration Curve (rat) AUC0-∞; for AUC / Cmax: 5 mg/kg, oral
In short: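 Male Sprague-Dawley rats (n=3/group) received a single 2 mg/kg IV (jugular slow bolus) or 5 mg/kg oral gavage dose in 10% DMSO/PEG-400; tail-vein plasma sampled to 24 h. Acetonitrile-precipitated plasma quantified by LC-MS/MS (LOQ 0.01 μg/mL); AUC0-∞ by linear trapezoidal rule plus Ct/β extrapolation.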

Bcl-XL protein = Bcl-XL protein (Homo sapiens, UniProt Q07817); assay: Bcl-XL binding affinity, fluorescence polarization with fluorescein-labeled BAD peptide; conditions: Wang's equation, read-out: Target Binding Affinity Ki (Bcl-XL)
Method: A mixture comprising 125 μL per well of assay buffer (20 mM phosphate buffer (pH 7.4), 1 mM EDTA, 50 mM NaCl, 0.05% PF-68), 6 nM of Bcl-XL protein (prepared as described in Science 1997, 275, 983-986), 1 nM fluorescein-labeled BAD peptide (prepared in-house) and the DMSO solution of the compound was shaken for 2 minutes and placed in a LJL Analyst (LJL Bio Systems, CA). A negative control (DMSO, 15 nM BAD peptide, assay buffer) and a positive control (DMSO, 1 nM BAD peptide, 6 nM Bcl-XL, assay buffer) were used to determine the range of the assay. Polarization was measured at room temperature using a continuous Fluorescein lamp (excitation 485 nm, emission 530 nm). Percentage of inhibition was determined by (1-((mP value of well-negative control)/range))×100%.
Ki values shown in the tables below were determined using Wang's equation (Wang Z X., An Exact Mathematical Expression For Describing Competitive Binding Of Two Different Ligands To A Protein Molecule. FEBS Lett. 1995; 360:111-4)).

mantle cell lymphoma = assay: Oral efficacy of EXAMPLE 1 in combination therapy, antitumorigenesis on mantle cell lymphoma; type: in vivo; conditions: without EXAMPLE 1
B-cell lymphoma = assay: Oral efficacy of EXAMPLE 1 in combination therapy, antitumorigenesis on B-cell lymphoma; type: in vivo; conditions: without EXAMPLE 1
[3] = Table 1, read-out: NCI-H146 Cellular Efficacy EC50
[4] = Table 2, read-out: NCI-H146 Cellular Efficacy H146, EC50
[5] = Table 2, read-out: Pharmacokinetic area under the plasma concentration curve (rat) AUC
[6] = Table 2, read-out: Pharmacokinetic peak plasma concentration (rat) Cmax

Sequence of Bcl-XL protein (Q07817 with tags, fused parts or gaps DEL45-84): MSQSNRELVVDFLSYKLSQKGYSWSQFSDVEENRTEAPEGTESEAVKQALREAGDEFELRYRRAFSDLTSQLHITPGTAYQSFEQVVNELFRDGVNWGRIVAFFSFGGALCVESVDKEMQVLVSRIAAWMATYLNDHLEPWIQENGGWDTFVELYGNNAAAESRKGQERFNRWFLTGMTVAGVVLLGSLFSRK
T1 sequence (P10415 with tags, fused parts or gaps with the stated changes): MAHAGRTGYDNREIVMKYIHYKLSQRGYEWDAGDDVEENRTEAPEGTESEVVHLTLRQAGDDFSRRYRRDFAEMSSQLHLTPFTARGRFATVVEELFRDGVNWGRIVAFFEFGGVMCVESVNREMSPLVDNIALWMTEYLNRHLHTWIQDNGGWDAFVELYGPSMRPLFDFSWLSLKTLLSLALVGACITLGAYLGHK

| Compound | EC50 [1, 3] | Ki (Bcl-2 protein) | AUC(0-inf) [2] | Ki (Bcl-XL protein) | further results |
| --- | --- | --- | --- | --- | --- |
| CC1(C)CCC(CN2CCN(c3ccc(C(=O)NS(=O)(=O)c4ccc(N[C@H](CCN5CCCC5)CSc5ccccc5)c(S(=O)(=O)C(F)(F)Cl)c4)cc3)CC2)=C(c2ccc(Cl)cc2)C1 [Example 31, 3-((chloro(difluoro)methyl)sulfonyl)-N-(4-(4-((2-(4-chlorophenyl)-4,4-dimethylcyclohex-1-en-1-yl)methyl)piperazin-1-yl)benzoyl)-4-(((1R)-1-((phenylsulfanyl)methyl)-3-(pyrrolidin-1-yl)propyl)amino)benzenesulfonamide] | 13 nM | ≤ 1 nM | 5.1 µM·h | ≤ 1 nM | – |
| CC1(C)CCC(CN2CCN(c3ccc(C(=O)NS(=O)(=O)c4ccc(N[C@H](CCN5CCCC5)CSc5ccccc5)c(S(=O)(=O)C(F)(F)F)c4)cc3)CC2)=C(c2ccc(Cl)cc2)C1 [Example 34, N-(4-(4-((2-(4-chlorophenyl)-4,4-dimethylcyclohex-1-en-1-yl)methyl)piperazin-1-yl)benzoyl)-4-(((1R)-1-((phenylsulfanyl)methyl)-3-(pyrrolidin-1-yl)propyl)amino)-3-((trifluoromethyl)sulfonyl)benzenesulfonamide] | 20 nM | ≤ 1 nM | 11.1 µM·h | ≤ 1 nM | – |
| CN(C)CC[C@H](CSc1ccccc1)Nc1ccc(S(=O)(=O)NC(=O)c2ccc(N3CCN(Cc4ccccc4-c4ccc(Cl)cc4)CC3)cc2)cc1S(=O)(=O)C(F)(F)F [Example 38, N-(4-(4-((4′-chloro(1,1′-biphenyl)-2-yl)methyl)-1-piperazinyl)benzoyl)-4-(((1R)-3-(dimethylamino)-1-((phenylsulfanyl)methyl)propyl)amino)-3-((trifluoromethyl)sulfonyl)benzenesulfonamide] | 39.4 nM | ≤ 1 nM | 0.67 µM·h | ≤ 1 nM | EC50 [1, 4]: 39 nM; AUC [2, 5]: 0.665 µM·h; Cmax [2, 6]: 72 nM |
| CC(C)C[C@H](NC(=O)[C@H](Cc1ccccc1)NC(=O)c1cnccn1)B(O)O [bortexomib, reference compound] | – | – | – | – | tumor regressions, agent alone (mantle cell lymphoma): no tumor regressions |
| CO[C@H]1C[C@@H]2CC[C@@H](C)[C@@](O)(O2)C(=O)C(=O)N2CCCC[C@H]2C(=O)O[C@H]([C@H](C)C[C@@H]2CC[C@@H](O)[C@H](OC)C2)CC(=O)[C@H](C)/C=C(\C)[C@@H](O)[C@@H](OC)C(=O)[C@H](C)C[C@H](C)/C=C/C=C/C=C/1C [rapamycin, reference compound] | – | – | – | – | tumor regressions, agent alone (B-cell lymphoma): 10% |
| rituximab: antibody, RITUXAN® (rituximab) [reference compound] | – | – | – | – | tumor regressions, agent alone (B-cell lymphoma): no tumor regressions |

The remaining compounds from weak to strong by EC50 [1, 3], led by results:

| EC50 [1, 3] | Ki (Bcl-2 protein) | AUC(0-inf) [2] | Ki (Bcl-XL protein) | Compound | further results |
| --- | --- | --- | --- | --- | --- |
| 82.7 nM | ≤ 1 nM | 1.66 µM·h | ≤ 1 nM | O=C(NS(=O)(=O)c1ccc(N[C@H](CCN2CCOCC2)CSc2ccccc2)c(S(=O)(=O)C(F)(F)F)c1)c1ccc(N2CCN(Cc3ccccc3-c3ccc(Cl)cc3)CC2)cc1 [Example 39, N-(4-(4-((4′-chloro(1,1′-biphenyl)-2-yl)methyl)-1-piperazinyl)benzoyl)-4-(((1R)-3-(4-morpholinyl)-1-((phenylsulfanyl)methyl)propyl)amino)-3-((trifluoromethyl)sulfonyl)benzenesulfonamide] | EC50 [1, 4]: 83 nM; AUC [2, 5]: 1.66 µM·h; Cmax [2, 6]: 290 nM |
| 37.8 nM | ≤ 1 nM | 3.01 µM·h | ≤ 1 nM | CC(C)N(C)CC[C@H](CSc1ccccc1)Nc1ccc(S(=O)(=O)NC(=O)c2ccc(N3CCN(CC4=C(c5ccc(Cl)cc5)CCCC4)CC3)cc2)cc1S(=O)(=O)C(F)(F)F [Example 33, N-(4-(4-((2-(4-chlorophenyl)cyclohex-1-en-1-yl)methyl)piperazin-1-yl)benzoyl)-4-(((1R)-3-(isopropyl(methyl)amino)-1-((phenylsulfanyl)methyl)propyl)amino)-3-((trifluoromethyl)sulfonyl)benzenesulfonamide] | EC50 ([1]; Table 3, read-out: NCI-H146 Cellular Efficacy H146 EC50): 38 nM; AUC ([2]; Table 3, read-out: Pharmacokinetic area under the plasma concentration Curve (rat) AUC): 3.01 µM·h; Cmax ([2]; Table 3, read-out: Pharmacokinetic peak plasma concentration (rat) Cmax): 129 nM |
| 31.7 nM | ≤ 1 nM | 3.39 µM·h | ≤ 1 nM | CC1(C)CCC(c2ccc(Cl)cc2)=C(CN2CCN(c3ccc(C(=O)NS(=O)(=O)c4ccc(N[C@H](CCN5CCCC5)CSc5ccccc5)c(S(=O)(=O)C(F)(F)Cl)c4)cc3)CC2)C1 [Example 30, 3-((chloro(difluoro)methyl)sulfonyl)-N-(4-(4-((2-(4-chlorophenyl)-5,5-dimethylcyclohex-1-en-1-yl)methyl)piperazin-1-yl)benzoyl)-4-(((1R)-1-((phenylsulfanyl)methyl)-3-(pyrrolidin-1-yl)propyl)amino)benzenesulfonamide] | – |
| 29.8 nM | ≤ 1 nM | 1.74 µM·h | ≤ 1 nM | O=C(NS(=O)(=O)c1ccc(N[C@H](CCN2CCCC2)CSc2ccccc2)c(S(=O)(=O)C(F)(F)F)c1)c1ccc(N2CCN(CC3=C(c4ccc(Cl)cc4)CCCCC3)CC2)cc1 [Example 29, N-(4-(4-((2-(4-chlorophenyl)cyclohept-1-en-1-yl)methyl)piperazin-1-yl)benzoyl)-4-(((1R)-1-((phenylsulfanyl)methyl)-3-(pyrrolidin-1-yl)propyl)amino)-3-((trifluoromethyl)sulfonyl)benzenesulfonamide] | – |
| 24.2 nM | ≤ 1 nM | 4.22 µM·h | ≤ 1 nM | CC1(C)CCC(CN2CCN(c3ccc(C(=O)NS(=O)(=O)c4ccc(N[C@H](CCN5C[C@@H]6C[C@H]5CO6)CSc5ccccc5)c(S(=O)(=O)C(F)(F)F)c4)cc3)CC2)=C(c2ccc(Cl)cc2)C1 [Example 36, N-(4-(4-((2-(4-chlorophenyl)-4,4-dimethylcyclohex-1-en-1-yl)methyl)piperazin-1-yl)benzoyl)-4-(((1R)-3-((1S,4S)-2-oxa-5-azabicyclo[2.2.1]hept-5-yl)-1-((phenylsulfanyl)methyl)propyl)amino)-3-((trifluoromethyl)sulfonyl)benzenesulfonamide] | – |
| 18.7 nM | ≤ 1 nM | 1.38 µM·h | ≤ 1 nM | O=C(NS(=O)(=O)c1ccc(N[C@H](CCN2CCCC2)CSc2ccccc2)c(S(=O)(=O)C(F)(F)Cl)c1)c1ccc(N2CCN(CC3=C(c4ccc(Cl)cc4)CCCCC3)CC2)cc1 [Example 32, 3-((chloro(difluoro)methyl)sulfonyl)-N-(4-(4-((2-(4-chlorophenyl)cyclohept-1-en-1-yl)methyl)piperazin-1-yl)benzoyl)-4-(((1R)-1-((phenylsulfanyl)methyl)-3-(pyrrolidin-1-yl)propyl)amino)benzenesulfonamide] | – |
| 17.5 nM | ≤ 1 nM | 7.3 µM·h | ≤ 1 nM | CN(C)CC[C@H](CSc1ccccc1)Nc1ccc(S(=O)(=O)NC(=O)c2ccc(N3CCN(CC4=C(c5ccc(Cl)cc5)CC(C)(C)CC4)CC3)cc2)cc1S(=O)(=O)C(F)(F)F [Example 37, N-(4-(4-((2-(4-chlorophenyl)-4,4-dimethylcyclohex-1-en-1-yl)methyl)piperazin-1-yl)benzoyl)-4-(((1R)-3-(dimethylamino)-1-((phenylsulfanyl)methyl)propyl)amino)-3-((trifluoromethyl)sulfonyl)benzenesulfonamide] | – |
| 7.6 nM | ≤ 1 nM | 1.26 µM·h | ≤ 1 nM | O=C(NS(=O)(=O)c1ccc(N[C@H](CCN2CCCC2)CSc2ccccc2)c(S(=O)(=O)C(F)(F)Cl)c1)c1ccc(N2CCN(CC3=C(c4ccc(Cl)cc4)CCCC3)CC2)cc1 [Example 35, 3-((chloro(difluoro)methyl)sulfonyl)-N-(4-(4-((2-(4-chlorophenyl)cyclohex-1-en-1-yl)methyl)piperazin-1-yl)benzoyl)-4-(((1R)-1-((phenylsulfanyl)methyl)-3-(pyrrolidin-1-yl)propyl)amino)benzenesulfonamide] | – |
